US20080038809A1, “ISOLATED LECTIN POLYPEPTIDES CONSISTING OF TRUNCATED […] UDP-GalNAc:POLYPEPTIDE N- ACETYLGALACTOSAMINYLTRANSFERASES” (GLYCOZYM APS, priority 2002, published 2008)
“Also recorded” adds a separate entry of the source.

Columns and labels:
[1] = tested on: MUC5AC in HT-29 MTX cells; experiment: MUC5AC secretion, SDS-PAGE western blot of media with LUM5-1 (FIG. 17); format: cell-based, human; settings: 5 mM, continuous culture, media at 14 days
Method: FIG. 17 illustrates SDS-PAGE Western analysis of MUC5AC secretion from HT29MTX cells using polyclonal anti-MUC5AC antibody LUM5-1. In order to evaluate GalNAcβ-benzyl as an inhibitor of mucin glycosylation and secretion we used the HT-29 metotrexate (MTX) cultured colon carcinoma cells of mucin secreting phenotype. HT-29 MTX cells have a goblet cell like phenotype with constitutive production of MUC5AC. Cells were continuously grown up to 21 days in the presence of 5 mM GalNAcα-benzyl, 5 mM GalNAcβ-benzyl, 5 mM GlcNAcα-benzyl and without inhibitor. […] In striking contrast, MUC5AC was not detected in the media from cells treated with GalNAcα-benzyl (Lane 3) or GalNAcβ-benzyl (Lane 4). Results shown are from media collected at 14 days.
In order to evaluate GalNAcβ-benzyl as an inhibitor of mucin glycosylation and secretion we used the cultured colon carcinoma cells of mucin secreting phenotypes: HT-29 metotrexate (MTX) cells selected from the HT-29 cell line by culture in the presence of MTX (kind gift from G. Huet, France). The HT-29 MTX cells were selected to yield a goblet cell like phenotype with constitutive production of MUC5AC. In order to ensure proper goblet cell differentiation the HT29MTX cell line were continuously grown up to 21 days in the presence of 5 mM GalNAcα-benzyl, 5 mM GalNAcβ-benzyl, 5 mM GlcNAcα-benzyl and without inhibitor using culture conditions as described in Hennebicq-Reig et al. (Permanent exposure of mucin-secreting HT-29 cells to benzyl-N-acetyl-alpha-D-galactosaminide induces abnormal O-glycosylation of mucins and inhibits constitutive and stimulated MUC5AC secretion. Biochem J. 1998; 334:283-95). […] Furthermore the viscosity of the media from cells with and without inhibitor was evaluated using viscosity micro-measurement.

[2] = tested on: MUC1 in CHO1d1D/MUC1F-clone2 cells; experiment: MUC1 expression in cell lysates, immunoprecipitation and SDS-PAGE western blot (FIGS. 12-15); format: cell-based, Chinese Hamster; settings: 2 mM, 48 hours
Method: FIG. 12 is an SDS-PAGE Western analysis of GalNAcα-benzyl inhibition of MUC1 expression in CHO 1d1D cells stably transfected with a full coding MUC1 construct. […] Cells were further treated with 2 mM GalNAcα-benzyl (lanes 1, 4, 7, 10), 2 mM GlcNAcα-benzyl (lanes 2, 5, 8, 11) or no inhibitor (lanes 3, 6, 9, 12). Cells were washed and lysed at 24 or 48 hours and the lysates subjected to immunoprecipitation with monoclonal antibody HMFG2, which broadly recognize MUC1 glycoforms. Immunoprecipitates were analysed by SDS-PAGE and western blot using HMFG2 antibody to detect MUC1 expression. Lane M indicates molecular markers with assigned mw. Lane C includes a control MUC1 180-mer tandem repeat peptide which has been GalNAc-glycosylated with 3 moles GalNAc per repeat using GalNAc-T2. The sharp bands migrating at 100-200 kd are immunoglobulins indicated by IgG.
Cells were further treated with 2 mM GalNAcα-benzyl (lanes 1, 4, 7, 10), 2 mM GalNAcβ-benzyl (lanes 2, 5, 8, 11) or 2 mM GlcNAcα-benzyl (lanes 3, 6, 9, 12). Cells were washed and lysed at 36 hours and the lysates subjected to immunoprecipitation with monoclonal antibodies HMFG2 (lanes 1-6) or 5E5 (lanes 7-12). Immunoprecipitates were analysed by SDS-PAGE and western blot using HMFG2 antibody. Lanes M and C as described in legend to FIG. 7.
We next analysed the expression of MUC1 produced by CHO1d1D/MUC1F-clone2 cells by SDS-PAGE western analysis. […] Cells were further treated with 2 mM GalNAcα-benzyl, GlcNAcα-benzyl or no inhibitor. Cells were washed and lysed at 24 or 48 hours and the lysates subjected to immunoprecipitation with monoclonal antibody HMFG2, which broadly recognize MUC1 glycoforms. Immunoprecipitates were analysed by SDS-PAGE and western blot using HMFG2 antibody to detect MUC1 expression. […] In striking contrast, treatment with GalNAcα-benzyl had significant effect after 48 hours. […] This indicates some heterogeneity in glycosylation.
As shown in Examples 2 and 3, polypeptide GalNAc-transferases contain lectin domains with binding properties for GalNAc-peptides including GalNAc-MUC1 peptides. […] GalNAcβ-benzyl, the β-anomeric configuration of GalNAc-benzyl (there is a β linkage between the N-acetylgalactosamine and the benzyl ring), was custom synthesized by Alberta Research Council (Canada), and its structure was confirmed by mass spectrometry and ^1H-NMR. […] Cells were then treated with 2 mM GalNAcα-benzyl, GalNAcβ-benzyl, or GlcNAcα-benzyl as control (GlcNAcα-benzyl was shown in Example 4 to have no effect). Cells were washed and lysed as described above after 36 hours and the lysates subjected to immunoprecipitation with anti-MUC1 monoclonal antibodies HMFG2 or 5E5. […] FIG. 15 illustrates the same experiment as in FIG. 14 except that the detection antibody is 5E5 and only Tn and STn MUC1 glycoforms are visualised.

GalNAc-T4 = GalNAc-T4 (Homo sapiens, UniProt Q8N4A0); settings: 230 mM; cited from earlier work
Chain of GalNAc-T4 (Q8N4A0 whole entry, the tested form may be a part): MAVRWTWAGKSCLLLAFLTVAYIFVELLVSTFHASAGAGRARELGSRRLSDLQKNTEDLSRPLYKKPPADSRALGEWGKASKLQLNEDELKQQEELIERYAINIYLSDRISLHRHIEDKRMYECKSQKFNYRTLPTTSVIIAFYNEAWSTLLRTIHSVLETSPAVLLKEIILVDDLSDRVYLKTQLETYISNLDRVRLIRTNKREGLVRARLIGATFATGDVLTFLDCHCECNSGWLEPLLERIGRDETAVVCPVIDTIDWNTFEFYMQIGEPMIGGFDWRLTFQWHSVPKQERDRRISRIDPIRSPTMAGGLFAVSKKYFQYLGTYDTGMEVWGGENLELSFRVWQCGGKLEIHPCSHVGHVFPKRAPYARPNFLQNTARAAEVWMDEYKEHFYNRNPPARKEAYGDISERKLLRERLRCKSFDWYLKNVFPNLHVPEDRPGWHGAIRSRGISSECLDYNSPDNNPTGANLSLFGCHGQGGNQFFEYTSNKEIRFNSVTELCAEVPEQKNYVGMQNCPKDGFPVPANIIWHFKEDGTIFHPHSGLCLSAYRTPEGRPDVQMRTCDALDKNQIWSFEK

GalNAc-T4 lectin domain = target: T1, GalNAc-T4 lectin domain (Homo sapiens, UniProt Q8N4A0); experiment: Inhibition of GalNAc-T4 lectin domain (T4ld) binding to GalNAc-MUC1 glycopeptide, ELISA
T1 construct: comprises amino acid residues 405-578 of GALNT4; made in house; host or cells: baculovirus (pAcGP67-A), virus made in Sf9, protein produced in High Five insect cells
T1 sequence (Q8N4A0 405-578): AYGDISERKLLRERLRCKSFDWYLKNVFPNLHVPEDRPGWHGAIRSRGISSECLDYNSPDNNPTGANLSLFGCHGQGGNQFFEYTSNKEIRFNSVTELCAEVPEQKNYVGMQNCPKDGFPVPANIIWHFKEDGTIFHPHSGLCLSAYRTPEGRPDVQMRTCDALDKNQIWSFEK
Method: (§1) Direct binding ELISA assay was developed as follows: Polystyrene microtiter plates (Maxisorb, Nunc, Denmark) were coated with peptides or enzymatically glycosylated glycopeptides in PBS overnight at 4° C. Plates were washed and blocked with 0.1% Tween20 and 0.2% BSA in PBS for 1 h at room temperature, followed by incubation with biotinylated proteins in PBS with 0.05% Tween20 for 2 h at room temperature. After four washes with PBS, plates were incubated with 1:2,000 dilution streptavidin-HRP (Sigma) in PBS for 30 min at room temperature and washed four times with PBS. Development was performed with 0.5 mg/ml o-phenylenediamine and 0.02% H2O2 at room temperature for 15 min, and reaction stopped by adding 100 μl/well of 0.5 N H2SO4. Competitive inhibition assays were done at end-point titers of GalNAc-transferase proteins with one hour preincubations with inhibitor.
(§2) In binding studies using lectins without biotinylation antibodies to the HIS-tag and the T7-tag, or in some experiments antibodies raised to GalNAc-T2 and -T4 enzymes were used to detect binding.
(§3) Inhibition experiments were used to further define the binding specificity of GalNAc-T2 and -T4 secreted soluble enzymes as well as lectin domains compared to Helix Pomatia lectin (Table IV).

[3] = tested on: GalNAc-T2 and -T4 secreted soluble enzymes as well as lectin domains; experiment: Inhibition of GalNAc-transferase lectin binding to GalNAc-glycopeptides, statements on GalNAc-T2 and -T4 together; parameters: species or system human; settings: enzymes and isolated lectins
Method: as §1
Lectins and antibodies to carbohydrates usually recognize the anomeric configuration of the sugar structures they bind.
as §3

[4] = target: T2, secreted soluble GalNAc-T4 (Homo sapiens, UniProt Q8N4A0); experiment: Inhibition of secreted soluble GalNAc-T4 (sT4) binding to GalNAc-MUC1 glycopeptide, ELISA
T2 construct: 6xHis (N); thrombin cleavage site (N); T7 antibody site (N); made in house; host or cells: baculovirus (pAcGP67A), High Five insect cells
T2 sequence (Q8N4A0 36-578 limits assumed): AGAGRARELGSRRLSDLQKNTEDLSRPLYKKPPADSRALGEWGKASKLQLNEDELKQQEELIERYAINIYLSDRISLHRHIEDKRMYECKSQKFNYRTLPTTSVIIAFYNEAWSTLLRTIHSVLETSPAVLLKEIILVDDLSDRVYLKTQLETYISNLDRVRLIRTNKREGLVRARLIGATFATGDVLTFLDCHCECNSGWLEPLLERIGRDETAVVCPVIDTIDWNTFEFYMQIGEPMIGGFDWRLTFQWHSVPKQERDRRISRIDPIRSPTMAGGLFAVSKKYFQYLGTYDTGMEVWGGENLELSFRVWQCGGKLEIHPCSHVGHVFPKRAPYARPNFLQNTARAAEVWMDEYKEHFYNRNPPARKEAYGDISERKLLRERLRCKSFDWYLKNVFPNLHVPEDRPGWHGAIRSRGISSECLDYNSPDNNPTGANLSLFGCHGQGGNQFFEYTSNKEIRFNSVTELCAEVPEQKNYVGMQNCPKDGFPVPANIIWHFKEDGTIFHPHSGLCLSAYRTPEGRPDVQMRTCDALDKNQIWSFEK
Method: as §1, §3

GalNAc-T2 lectin domain = target: T3, GalNAc-T2 lectin domain (Homo sapiens, UniProt Q10471); experiment: Inhibition of GalNAc-T2 lectin domain (T2ld) binding to GalNAc-MUC1 glycopeptide, ELISA
T3 construct: comprises amino acid residues 408-571 of GALNT2; made in house; host or cells: baculovirus (pAcGP67-A), virus made in Sf9, protein produced in High Five insect cells
T3 sequence (Q10471 408-571): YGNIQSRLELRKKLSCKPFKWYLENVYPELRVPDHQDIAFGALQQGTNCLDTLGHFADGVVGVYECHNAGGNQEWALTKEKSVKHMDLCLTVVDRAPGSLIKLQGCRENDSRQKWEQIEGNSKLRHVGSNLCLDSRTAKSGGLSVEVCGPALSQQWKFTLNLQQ
Method: as §1, §2, §3

[5] = target: T4, secreted soluble GalNAc-T2 (Homo sapiens, UniProt Q10471); experiment: Inhibition of secreted soluble GalNAc-T2 (sT2) binding to GalNAc-MUC1 glycopeptide, ELISA
T4 construct: 6xHis (N); thrombin cleavage site (N); T7 antibody site (N); made in house; host or cells: baculovirus (pAcGP67A), High Five insect cells
T4 sequence (Q10471 52-571 limits assumed): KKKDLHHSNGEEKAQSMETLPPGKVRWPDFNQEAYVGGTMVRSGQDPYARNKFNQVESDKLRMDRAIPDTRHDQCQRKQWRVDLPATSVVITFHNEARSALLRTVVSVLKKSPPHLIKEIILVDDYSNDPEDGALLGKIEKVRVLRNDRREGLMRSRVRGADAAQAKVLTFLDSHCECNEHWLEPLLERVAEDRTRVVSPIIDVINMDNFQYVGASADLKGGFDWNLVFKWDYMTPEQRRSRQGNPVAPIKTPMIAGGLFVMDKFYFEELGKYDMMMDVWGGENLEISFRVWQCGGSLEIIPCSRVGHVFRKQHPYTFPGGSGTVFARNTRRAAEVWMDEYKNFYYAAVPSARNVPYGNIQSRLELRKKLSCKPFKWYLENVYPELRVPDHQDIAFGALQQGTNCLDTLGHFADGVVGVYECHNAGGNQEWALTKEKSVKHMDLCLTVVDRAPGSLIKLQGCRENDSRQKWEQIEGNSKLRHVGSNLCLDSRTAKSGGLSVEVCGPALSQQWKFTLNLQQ
Method: as §1, §3

[6] = target: T5, human GalNAc-T2 (UDP-GalNAc:polypeptide N-acetylgalactosaminyltransferase T2) isolated truncated lectin domain (T2ld), HIS-tagged, amino acid residues 408-571 o (Homo sapiens, UniProt Q10471); format: binding
T5 sequence (Q10471 408-571): T3 sequence (Q10471 408-571)
Excerpt: (§4) In order to minimize the size and functional complexity of GalNAc-transferase lectins to be used as probes for binding studies, we used multiple sequence alignment analysis to predict and design suitable expression constructs for isolated lectin domains (FIG. 2). In the present invention a direct binding assay was developed using isolated lectin domains of GalNAc-T4 and -T2 with minimal size (FIG. 5). […] The lectin Helix Pomatia (HP) was used as a control plant lectin with known binding specificity for […].
as §1, §2, §3
(§5) The ligand target used in this Example is a GalNAc-MUC1 glycopeptide produced enzymatically from synthetic peptides.

[7] = target: human GalNAc-T4 (UDP-GalNAc:polypeptide N-acetylgalactosaminyltransferase T4) isolated truncated lectin domain (T4ld), HIS-tagged, amino acid residues 405-578 o (Homo sapiens, UniProt Q8N4A0); experiment: biochemical; format: binding; settings: isolated lectin domain
Chain of human GalNAc-T4 (UDP-GalNAc:polypeptide N-acetylgalactosaminyltransferase T4) isolated truncated lectin domain (T4ld), HIS-tagged, amino acid residues 405-578 o (Q8N4A0 405-578): as the sequence (Q8N4A0 405-578) above
Excerpt: as §4, §1, §2, §3, §5

| Structure (SMILES) | IC50 (GalNAc-T4 lectin domain) [mM] | IC50 [4] [mM] | IC50 (GalNAc-T2 lectin domain) [mM] | IC50 [5] [mM] | further results |
| --- | --- | --- | --- | --- | --- |
| CC(=O)N[C@H]1[C@@H](OCc2ccccc2)O[C@H](CO)[C@@H](O)[C@@H]1O [BzlαGlcNAc] | – | – | – | – | MUC5AC in media (secretion) [1]: detected; MUC1 expression ([2]; HMFG2 blot, cells grown in GalNAc or Gal and GalNAc, listed as GlcNAcα-benzyl): same glycoforms at similar intensity; also recorded: no effect; SDS-PAGE migration of MUC1 (O-glycosylation) ([2]; cells grown in Gal and GalNAc): no effect |
| CC(=O)N[C@H]1C(O)O[C@H](CO)[C@H](O)[C@@H]1O (stereo partly drawn) [GalNAc, N-acetylgalactosamine] | 5 | 1 | 37 | 15 | inhibition of GalNAc-glycopeptide activity of GalNAc-T4 (GalNAc-T4): selective inhibition; inhibition of GalNAc-T2 and -T4 lectin mediated binding, in words [3]: selectively inhibited |
| OC[C@H]1OC(O)[C@H](O)[C@@H](O)[C@H]1O (stereo partly drawn) [Gal] | – | – | – | – | inhibition of GalNAc-T2 lectin domain binding (in words) [6]: no inhibitory effect; inhibition of GalNAc-T4 lectin domain binding (in words) [7]: no inhibitory effect |
| OC[C@H]1O[C@@H](O[C@H]2[C@H](O)[C@@H](O)C(O)O[C@@H]2CO)[C@H](O)[C@@H](O)[C@H]1O (stereo partly drawn) [Lactose] | > 100 | > 100 | > 100 | > 100 | – |
